Source: ChEMBL document CHEMBL1201862, “PubChem BioAssay data set” (2004)
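Cells were grown in 96-well plates and exposed to each compound for 48 hours at five concentrations; endpoints were interpolated linearly between bracketing concentrations, or set to the highest concentration if not reached. At the GI50, growth is halved.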 Active and inactive are the calls of the source. Cut-off read from the data, not from the text of the source: active = GI50 up to about 1.1 µM and inactive = higher.

Tests used:
Assay in all cases: growth of human tumour cells (NCI), 48 h
786-0 = test system: 786-0
A498 = test system: A498
A549 = test system: A549
BT-549 = test system: BT-549
CAKI-1 = test system: CAKI-1
CCRF-CEM = test system: CCRF-CEM
COLO 205 = test system: COLO 205
DU-145 = test system: DU-145
EKVX = test system: EKVX
HCC 2998 = test system: HCC 2998
HCT-15 = test system: HCT-15
HL-60 = test system: HL-60
HOP-62 = test system: HOP-62
HOP-92 = test system: HOP-92
Hs-578T = test system: Hs-578T
IGROV-1 = test system: IGROV-1
K562 = test system: K562
KM12 = test system: KM12
LOX IMVI = test system: LOX IMVI
M14 = test system: M14
MCF7 = test system: MCF7
MDA-MB-231 = test system: MDA-MB-231
MDA-N = test system: MDA-N
MOLT-4 = test system: MOLT-4
Malme-3M = test system: Malme-3M
NCI-H226 = test system: NCI-H226
NCI-H23 = test system: NCI-H23
NCI-H460 = test system: NCI-H460
NCI/ADR-RES = test system: NCI/ADR-RES
OVCAR-4 = test system: OVCAR-4
OVCAR-8 = test system: OVCAR-8
RPMI-8226 = test system: RPMI-8226
SF-268 = test system: SF-268
SF-539 = test system: SF-539
SK-MEL-28 = test system: SK-MEL-28
SK-MEL-5 = test system: SK-MEL-5
SK-OV-3 = test system: SK-OV-3
SN12C = test system: SN12C
SNB-75 = test system: SNB-75
SR = test system: SR
SW-620 = test system: SW-620
T47D = test system: T47D
TK-10 = test system: TK-10
U-251 = test system: U-251
UACC-257 = test system: UACC-257
UACC-62 = test system: UACC-62
UO-31 = test system: UO-31
ACHN = test system: ACHN
HCT-116 = test system: HCT-116
HT-29 = test system: HT-29
MDA-MB-435 = test system: MDA-MB-435
NCI-H522 = test system: NCI-H522
OVCAR-5 = test system: OVCAR-5
PC-3 = test system: PC-3
RXF 393 = test system: RXF 393
SF-295 = test system: SF-295
SK-MEL-2 = test system: SK-MEL-2
OVCAR-3 = test system: OVCAR-3
SNB-19 = test system: SNB-19

COc1ccc(/C(C)=N/NC(=O)c2ccncc2)c(OC)c1
GI50 (786-0): > 10 µM (inactive) | GI50 (A498): > 10 µM (inactive) | GI50 (A549): > 10 µM (inactive) | GI50 (BT-549): > 10 µM (inactive) | GI50 (CAKI-1): > 10 µM (inactive) | GI50 (CCRF-CEM): > 10 µM (inactive) | GI50 (COLO 205): > 10 µM (inactive) | GI50 (DU-145): > 10 µM (inactive) | GI50 (EKVX): > 10 µM (inactive) | GI50 (HCC 2998): > 10 µM (inactive) | GI50 (HCT-15): > 10 µM | GI50 (HL-60): > 10 µM (inactive) | GI50 (HOP-62): > 10 µM (inactive) | GI50 (HOP-92): > 10 µM (inactive) | GI50 (Hs-578T): > 10 µM (inactive) | GI50 (IGROV-1): > 10 µM (inactive) | GI50 (K562): > 10 µM (inactive) | GI50 (KM12): > 10 µM (inactive) | GI50 (LOX IMVI): > 10 µM (inactive) | GI50 (M14): > 10 µM (inactive) | GI50 (MCF7): > 10 µM (inactive) | GI50 (MDA-MB-231): > 10 µM (inactive) | GI50 (MDA-N): > 10 µM (inactive) | GI50 (MOLT-4): > 10 µM (inactive) | GI50 (Malme-3M): > 10 µM (inactive) | GI50 (NCI-H226): > 10 µM (inactive) | GI50 (NCI-H23): > 10 µM (inactive) | GI50 (NCI-H460): > 10 µM (inactive) | GI50 (NCI/ADR-RES): > 10 µM (inactive) | GI50 (OVCAR-4): > 10 µM (inactive) | GI50 (OVCAR-8): > 10 µM (inactive) | GI50 (RPMI-8226): > 10 µM (inactive) | GI50 (SF-268): > 10 µM (inactive) | GI50 (SF-539): > 10 µM (inactive) | GI50 (SK-MEL-28): > 10 µM (inactive) | GI50 (SK-MEL-5): > 10 µM (inactive) | GI50 (SK-OV-3): > 10 µM (inactive) | GI50 (SN12C): > 10 µM (inactive) | GI50 (SNB-75): > 10 µM (inactive) | GI50 (SR): > 10 µM (inactive) | GI50 (SW-620): > 10 µM (inactive) | GI50 (T47D): > 10 µM (inactive) | GI50 (TK-10): > 10 µM (inactive) | GI50 (U-251): > 10 µM (inactive) | GI50 (UACC-257): > 10 µM (inactive) | GI50 (UACC-62): > 10 µM (inactive) | GI50 (UO-31): > 10 µM (inactive)

CCOC(=O)CCC(NC(=O)OCc1ccccc1)C(=O)NC(CCC(=O)OCC)C(=O)NC(CCC(=O)OCC)C(=O)NC(CCC(=O)OCC)C(=O)NC(CCC(=O)OCC)C(=O)OCC (configuration not stated)
GI50 (786-0): > 100 µM (inactive) | GI50 (A549): > 100 µM (inactive) | GI50 (ACHN): > 100 µM (inactive) | GI50 (BT-549): > 100 µM (inactive) | GI50 (CAKI-1): > 100 µM (inactive) | GI50 (CCRF-CEM): > 100 µM (inactive) | GI50 (COLO 205): > 100 µM (inactive) | GI50 (DU-145): > 100 µM (inactive) | GI50 (EKVX): > 100 µM (inactive) | GI50 (HCT-116): > 100 µM (inactive) | GI50 (HCT-15): > 100 µM | GI50 (HOP-62): > 100 µM (inactive) | GI50 (HT-29): > 100 µM (inactive) | GI50 (Hs-578T): > 100 µM (inactive) | GI50 (IGROV-1): > 100 µM (inactive) | GI50 (KM12): > 100 µM (inactive) | GI50 (LOX IMVI): > 100 µM (inactive) | GI50 (M14): > 100 µM (inactive) | GI50 (MCF7): > 100 µM (inactive) | GI50 (MDA-MB-435): > 100 µM (inactive) | GI50 (MDA-N): > 100 µM (inactive) | GI50 (MOLT-4): > 100 µM (inactive) | GI50 (Malme-3M): > 100 µM (inactive) | GI50 (NCI-H23): > 100 µM (inactive) | GI50 (NCI-H460): > 100 µM (inactive) | GI50 (NCI-H522): > 100 µM (inactive) | GI50 (NCI/ADR-RES): > 100 µM (inactive) | GI50 (OVCAR-4): > 100 µM (inactive) | GI50 (OVCAR-5): > 100 µM (inactive) | GI50 (OVCAR-8): > 100 µM (inactive) | GI50 (PC-3): > 100 µM (inactive) | GI50 (RPMI-8226): > 100 µM (inactive) | GI50 (RXF 393): > 100 µM (inactive) | GI50 (SF-295): > 100 µM (inactive) | GI50 (SK-MEL-28): > 100 µM (inactive) | GI50 (SK-MEL-2): > 100 µM (inactive) | GI50 (SK-MEL-5): > 100 µM (inactive) | GI50 (SK-OV-3): > 100 µM (inactive) | GI50 (SN12C): > 100 µM (inactive) | GI50 (SNB-75): > 100 µM (inactive) | GI50 (SR): > 100 µM (inactive) | GI50 (SW-620): > 100 µM (inactive) | GI50 (T47D): > 100 µM (inactive) | GI50 (TK-10): > 100 µM (inactive) | GI50 (U-251): > 100 µM (inactive) | GI50 (UACC-257): > 100 µM (inactive) | GI50 (UACC-62): > 100 µM (inactive) | GI50 (UO-31): > 100 µM (inactive)

O=C1c2ccccc2C(=O)N1/N=C1/SC(=N\c2ccccc2)/C(=N/c2ccccc2)N1c1ccccc1
GI50 (786-0): 11.4 µM (inactive) | GI50 (A498): 19.7 µM (inactive) | GI50 (A549): > 21 µM (inactive) | GI50 (ACHN): > 66.4 µM (inactive) | GI50 (BT-549): > 48.4 µM (inactive) | GI50 (CAKI-1): > 100 µM (inactive) | GI50 (CCRF-CEM): > 51.3 µM (inactive) | GI50 (COLO 205): > 85.3 µM (inactive) | GI50 (DU-145): > 100 µM (inactive) | GI50 (EKVX): > 76.9 µM (inactive) | GI50 (HCC 2998): > 48.5 µM (inactive) | GI50 (HCT-116): 38.6 µM (inactive) | GI50 (HCT-15): > 47.5 µM | GI50 (HL-60): > 40.4 µM (inactive) | GI50 (HOP-62): > 45.6 µM (inactive) | GI50 (HOP-92): > 27.9 µM (inactive) | GI50 (HT-29): > 50 µM (inactive) | GI50 (Hs-578T): > 22.9 µM (inactive) | GI50 (IGROV-1): > 78.7 µM (inactive) | GI50 (K562): > 60 µM (inactive) | GI50 (KM12): > 38.8 µM (inactive) | GI50 (LOX IMVI): > 100 µM (inactive) | GI50 (M14): 77.1 µM (inactive) | GI50 (MCF7): > 68.1 µM (inactive) | GI50 (MDA-MB-231): > 10 µM (inactive) | GI50 (MDA-MB-435): > 100 µM (inactive) | GI50 (MOLT-4): > 65.8 µM (inactive) | GI50 (Malme-3M): > 47.3 µM (inactive) | GI50 (NCI-H226): > 71.3 µM (inactive) | GI50 (NCI-H23): > 46.8 µM (inactive) | GI50 (NCI-H460): > 61.8 µM (inactive) | GI50 (NCI-H522): 97.7 µM (inactive) | GI50 (NCI/ADR-RES): > 100 µM (inactive) | GI50 (OVCAR-3): > 100 µM (inactive) | GI50 (OVCAR-4): > 100 µM (inactive) | GI50 (OVCAR-5): > 100 µM (inactive) | GI50 (OVCAR-8): 40.1 µM (inactive) | GI50 (PC-3): > 52.6 µM (inactive) | GI50 (RPMI-8226): > 21.1 µM (inactive) | GI50 (RXF 393): 4.47 µM (inactive) | GI50 (SF-268): > 100 µM (inactive) | GI50 (SF-295): 26.4 µM (inactive) | GI50 (SF-539): 33.2 µM (inactive) | GI50 (SK-MEL-28): > 35.1 µM (inactive) | GI50 (SK-MEL-2): > 55.2 µM (inactive) | GI50 (SK-MEL-5): > 39 µM (inactive) | GI50 (SN12C): > 39.3 µM (inactive) | GI50 (SNB-19): > 90.4 µM (inactive) | GI50 (SNB-75): 19.9 µM (inactive) | GI50 (SR): > 31.6 µM (inactive) | GI50 (SW-620): > 61.7 µM (inactive) | GI50 (T47D): > 100 µM (inactive) | GI50 (TK-10): > 58.5 µM (inactive) | GI50 (U-251): 24.9 µM (inactive) | GI50 (UACC-257): > 100 µM (inactive) | GI50 (UACC-62): > 95.5 µM (inactive) | GI50 (UO-31): 25.7 µM (inactive)
